Experimental data published in patent US20050163876A1, “Cancer treatment using natural plant products or essential oils or components from some pistacia species” (DATA MEDICA PADOVA S.p.A., priority 2003, published 2005).

How the values were obtained:
LoVo cells = experiment: Pearson correlation between oil components and cytotoxic activity; parameters: species or system human; conditions: P. lentiscus oils / LoVo cells
Protocol: The Pearson correlation and linear regression analyzes between the oil components and biological activity was also determined. To the scope all data were collected in a data base and analysed by the GraphPad Prism Version 3.0 statistical software to identify substances directly responsible of biological activity.

[1] = system: transplanted hamster pancreatic tumors; conditions: cited from earlier work

Row | SMILES | Pearson correlation r between oil component and cytotoxic activity (LoVo cells) | growth of transplanted tumors relative to controls [1]
1 | CC(=O)OC1CC2CCC1(C)C2(C)C (stereo not shown) [Bornyl Acetate] | 0.8693 | –
2 | C=C1CC[C@H]2O[C@]2(C)CC[C@@H]2[C@@H]1CC2(C)C [Caryophyllene Oxide] | 0.8355 | –
3 | Cc1ccc(C(C)C)cc1 [Para cymene, Para Cymene] | −0.8621 | –
4 | C=C(C)[C@@H]1CC=C(CO)CC1 [perillyl alcohol] | – | less than half that of controls
